According to patent US12077503B2, “Substituted cyclic amides and their use as herbicides” (FMC CORPORATION, priority 2015, dated 2024):

Columns and labels:
Type in all cases: in vivo
[1] = system: sedge, umbrella (small-flower umbrella sedge, Cyperus difformis); assay: Test B flooded paddy test; conditions: Cyperus difformis, 360 h, Flood, 250 g ai/ha; visually evaluated after 13 to 15 d; read-out: Plant response rating, Sedge, Umbrella (0 to 100 scale where 0 is no effect and 100 is complete control)
Procedure, shortened: (§1)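 Evaluation by eye, against controls, occurred 13–15 d post-treatment in a greenhouse, using a 0 (no effect) to 100 (complete control) scale. Application was into the paddy water, 3 cm deep over the soil, on 2-leaf plants.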

[2] = system: barnyardgrass (Echinochloa crus-galli); assay: Test B flooded paddy test; conditions: Echinochloa crus-galli, 360 h, Flood, 250 g ai/ha; visually evaluated after 13 to 15 d; read-out: Plant response rating, Barnyardgrass (0 to 100 scale where 0 is no effect and 100 is complete control)
Procedure, shortened: as §1

[3] = system: ducksalad (Heteranthera limosa); assay: Test B flooded paddy test; conditions: Heteranthera limosa, 360 h, Flood, 250 g ai/ha; visually evaluated after 13 to 15 d; read-out: Plant response rating, Ducksalad (0 to 100 scale where 0 is no effect and 100 is complete control)
Procedure, shortened: as §1

rice (Oryra sativa) = assay: Test B flooded paddy test; conditions: Oryza sativa, 360 h, Flood, 250 g ai/ha; visually evaluated after 13 to 15 d; read-out: Plant response rating, Rice (0 to 100 scale where 0 is no effect and 100 is complete control)
Procedure, shortened: as §1

[4] = system: pigweed (Amaranthus retroflexus); assay: Test A postemergence; conditions: Amaranthus retroflexus, post-emergence, 240 h, Postemergence, read-out: Pigweed plant response rating (0 to 100 scale)
Procedure, shortened: (§2)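 Preemergence directed soil spray on seeded pots, or postemergence application to plants 2–10 cm, one- to two-leaf. Solvent mixture non-phytotoxic, with surfactant. Scored ~10 d later, visually, 0–100 vs untreated.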

[5] = system: blackgrass (Alopecurus myosuroides); assay: Test A postemergence; conditions: Alopecurus myosuroides, post-emergence, 240 h, Postemergence, read-out: Blackgrass plant response rating (0 to 100 scale)
Procedure, shortened: as §2

corn (Zea mays) = assay: Test A postemergence; conditions: Zea mays, post-emergence, 240 h, Postemergence, read-out: Corn plant response rating (0 to 100 scale)
Procedure, shortened: as §2

Kochia (Kochia scoparia) [6] = assay: Test A postemergence; conditions: Bassia scoparia, post-emergence, 240 h, Postemergence, read-out: Kochia plant response rating (0 to 100 scale)
Procedure, shortened: as §2

[7] = system: Galium (catchweed bedstraw, Galium aparine); assay: Test A postemergence; conditions: Galium, post-emergence, 240 h, Postemergence, read-out: Galium plant response rating (0 to 100 scale)
Procedure, shortened: as §2

[8] = system: wheat (Triticum aestivum); assay: Test A postemergence; conditions: Triticum aestivum, post-emergence, 240 h, Postemergence, read-out: Wheat plant response rating (0 to 100 scale)
Procedure, shortened: as §2

[9] = system: barnyardgrass (Echinochloa crus-galli); assay: Test A postemergence; conditions: Echinochloa crus-galli, post-emergence, 240 h, Postemergence
Procedure, shortened: as §2

[10] = system: ragweed (common ragweed, Ambrosia elatior); assay: Test A postemergence; conditions: Ambrosia artemisiifolia, post-emergence, 240 h, Postemergence, read-out: Ragweed plant response rating (0 to 100 scale)
Procedure, shortened: as §2

[11] = system: ryegrass, Italian (Italian ryegrass, Lolium multiflorum); assay: Test A postemergence; conditions: Lolium multiflorum, post-emergence, 240 h, Postemergence, read-out: Ryegrass, Italian plant response rating (0 to 100 scale)
Procedure, shortened: as §2

[12] = system: giant foxtail (Setaria faberii); assay: Test A postemergence; conditions: Setaria faberi, post-emergence, 240 h, Postemergence, read-out: Foxtail, Giant plant response rating (0 to 100 scale)
Procedure, shortened: as §2

[13] = system: pigweed (Amaranthus retroflexus); assay: Test A preemergence; conditions: Amaranthus retroflexus, pre-emergence, 240 h, Preemergence
Kochia (Kochia scoparia) [14] = assay: Test A preemergence; conditions: Bassia scoparia, pre-emergence, 240 h, Preemergence
Procedure, shortened: as §2

[15] = system: barnyardgrass (Echinochloa crus-galli); assay: Test A preemergence; conditions: Echinochloa crus-galli, pre-emergence, 240 h, Preemergence
Procedure, shortened: as §2

[16] = system: ragweed (common ragweed, Ambrosia elatior); assay: Test A preemergence; conditions: Ambrosia artemisiifolia, pre-emergence, 240 h, Preemergence
Procedure, shortened: as §2

[17] = system: ryegrass, Italian (Italian ryegrass, Lolium multiflorum); assay: Test A preemergence; conditions: Lolium multiflorum, pre-emergence, 240 h, Preemergence
Procedure, shortened: as §2

[18] = system: giant foxtail (Setaria faberii); assay: Test A preemergence; conditions: Setaria faberi, pre-emergence, 240 h, Preemergence
Procedure, shortened: as §2

[19] = 125 g ai/ha, visual rating about 10 d after treatment
[20] = 31 g ai/ha, 0 is no effect, 100 is complete control

COc1c([C@H]2CN(C)C(=O)[C@@H]2C(=O)Nc2ccccc2SC)cccc1C(F)(F)F [Compound 1340]
pest or weed control at 250 g/ha [1]: 0% | pest or weed control at 250 g/ha [2]: 40% | pest or weed control at 250 g/ha [3]: 80% | pest or weed control at 250 g/ha (rice (Oryra sativa)): 20% | pest or weed control at 125 g/ha [4, 19]: 0% | pest or weed control at 31 g/ha [4, 20]: 0% | pest or weed control at 125 g/ha [5, 19]: 0% | pest or weed control at 31 g/ha [5, 20]: 0% | plant injury at 125 g/ha (corn (Zea mays); [19]): 20% | plant injury at 31 g/ha (corn (Zea mays); [20]): 0% | pest or weed control at 125 g/ha (Kochia (Kochia scoparia) [6]; [19]): 20% | pest or weed control at 31 g/ha (Kochia (Kochia scoparia) [6]; [20]): 0% | pest or weed control at 125 g/ha [7, 19]: 20% | pest or weed control at 31 g/ha [7, 20]: 0% | plant injury at 125 g/ha [8, 19]: 0% | plant injury at 31 g/ha [8, 20]: 0% | pest or weed control at 125 g/ha ([9]; 125 g ai/ha, visual rating about 10 d after treatment, read-out: Barnyardgrass plant response rating (0 to 100 scale, 0 no effect, 100 complete control)): 30% | pest or weed control at 31 g/ha ([9]; 31 g ai/ha, 0 is no effect, 100 is complete control, read-out: Barnyardgrass plant response rating (0 to 100 scale)): 20% | pest or weed control at 125 g/ha [10, 19]: 0% | pest or weed control at 31 g/ha [10, 20]: 0% | pest or weed control at 125 g/ha [11, 19]: 0% | pest or weed control at 31 g/ha [11, 20]: 0% | pest or weed control at 125 g/ha [12, 19]: 50% | pest or weed control at 31 g/ha [12, 20]: 0% | pest or weed control at 31 g/ha ([13]; 31 g ai/ha, 0 to 100 scale where 0 is no effect and 100 is complete control, read-out: Pigweed plant response rating): 0% | pest or weed control at 125 g/ha ([13]; 125 g ai/ha, 0 to 100 scale (0 no effect, 100 complete control), read-out: Plant response rating, Pigweed): 20% | pest or weed control at 31 g/ha (Kochia (Kochia scoparia) [14]; 31 g ai/ha, 0 to 100 scale where 0 is no effect and 100 is complete control, read-out: Kochia plant response rating): 0% | pest or weed control at 125 g/ha (Kochia (Kochia scoparia) [14]; 125 g ai/ha, 0 to 100 scale (0 no effect, 100 complete control), read-out: Plant response rating, Kochia): 0% | pest or weed control at 31 g/ha ([15]; 31 g ai/ha, 0 to 100 scale where 0 is no effect and 100 is complete control, read-out: Barnyardgrass plant response rating): 90% | pest or weed control at 125 g/ha ([15]; 125 g ai/ha, 0 to 100 scale (0 no effect, 100 complete control), read-out: Plant response rating, Barnyardgrass): 90% | pest or weed control at 31 g/ha ([16]; 31 g ai/ha, 0 to 100 scale where 0 is no effect and 100 is complete control, read-out: Ragweed plant response rating): 0% | pest or weed control at 125 g/ha ([16]; 125 g ai/ha, 0 to 100 scale (0 no effect, 100 complete control), read-out: Plant response rating, Ragweed): 0% | pest or weed control at 31 g/ha ([17]; 31 g ai/ha, 0 to 100 scale where 0 is no effect and 100 is complete control, read-out: Ryegrass, Italian plant response rating): 0% | pest or weed control at 125 g/ha ([17]; 125 g ai/ha, 0 to 100 scale (0 no effect, 100 complete control), read-out: Plant response rating, Ryegrass, Italian): 0% | pest or weed control at 31 g/ha ([18]; 31 g ai/ha, 0 to 100 scale where 0 is no effect and 100 is complete control, read-out: Foxtail, Giant plant response rating): 40% | pest or weed control at 125 g/ha ([18]; 125 g ai/ha, 0 to 100 scale (0 no effect, 100 complete control), read-out: Plant response rating, Foxtail, Giant): 90%
